This note sets out measurements from US9403829B2, “Pharmaceutical compositions of 7-(6-(2-hydroxypropan-2-yl)pyridin-3-yl)-1-((trans)-4-methoxycyclohexyl)-3,4-dihydropyrazino [2,3-b]pyrazin-2(1H)-one, a solid form thereof and methods of their use” (Signal Pharmaceuticals, LLC, priority 2011, dated 2016).

A short description of series [1]: Phase 1 crossover pharmacokinetic study of tablet and capsule formulations, single oral dose. It is filed as in vivo, human. The method, then:
Certain formulations provided herein were evaluated in a Phase 1, open-label, randomized, crossover study.
On Day 1 of Period 1, following an overnight fast of at least 8 hours, subjects were randomized to one of the following 3 sequences to receive Treatment A, B or C (Table 30).
In Treatment A, one 20-mg reference Compound A API-in-capsule was administered orally after at least 8 hour fast with 240 mL of non-carbonated, room temperature water. In Treatment B, one 20-mg tablet of Compound A (Tablet Formulation XIII) was administered under fasted conditions. In Treatment C, four 5-mg tablets of Compound A (Tablet Formulation XIV) were administered under fasted conditions. The 20-mg tablet and four 5-mg tablets were administered orally after at least 8 hour fast with 240 mL of non-carbonated, room temperature water.
For each period, serial blood samples were collected before dosing (zero hour) and at 0.5, 1, 1.5, 2, 2.5, 3, 4, 6, 8, 12, 24, 48, 72, and 96 hours after dosing. Plasma concentrations of Compound A were determined for determining PK parameters, such as […], AUC0-∞, Cmax, Tmax, t1/2, CL/F, and Vz/F for Compound A. Plasma PK parameters were calculated using non compartmental methods. Analyses of variance (ANOVA) were performed on the natural log-transformed AUC0-t, AUC0-∞, and Cmax for Compound A. The geometric mean ratios (test/reference) and their 90% confidence intervals were also calculated. For Tmax, non parametric analysis was used to produce median differences.

The nature of series [2]: Phase 1 food effect study (Part 2), single 20-mg oral dose of Compound A tablet, fed vs fasted. The settings on record: for CL/F / Tmax / AUC(0-inf) / Cmax / half-life / AUC(0-t) / Vd/F: single 20-mg oral dose of Compound A tablet; for CL/F / AUC(0-inf) / Cmax / half-life / AUC(0-t) / Vd/F: geometric mean; for Tmax / AUC(0-inf) / Cmax / half-life / AUC(0-t) / Vd/F: male, human, plasma, po, 20 mg; for Tmax: median, read-out: Tmax; for AUC(0-t): read-out: AUC0-24; for Vd/F: read-out: Vz/F. The format is in vivo, human. The procedure:
The primary objectives of this study are: to characterize the biotransformation and excretion of Compound A following a single 20 mg oral dose of Compound A capsule containing a microtracer of [^14C]-Compound A solution in healthy male subjects (Part 1) and to evaluate the effect of a high-fat meal on the pharmacokinetics (PK) of Compound A following a single oral 20-mg dose of Compound A tablet (Part 2).
Part 2 design: Part 2 will be a 2-period crossover study; in Period 1, subjects (n=12) will be randomized to receive either an oral 20 mg dose of Compound A tablet (Treatment B) under fed (n=6) or fasted (n=6) conditions. In Period 2, subjects will receive Treatment B under converse conditions based on treatment assignment in Period 1. After screening, subjects (n=12) eligible for participation in the study will return to the study center on Day −1 for baseline assessments. Subjects who continue to be qualified for participation in the study will be randomized and enrolled in the study on the morning of Day 1. Subjects (n=6) will be enrolled and randomized to receive Treatment B under fed or fasted conditions on the morning of Day 1 after fasting for at least 8 hours. Fed subjects will be served a standard high fat meal breakfast, or its equivalent, that must be consumed within 30 minutes from serving. Dosing must occur 30 minutes (+5 minutes) after serving a subject breakfast. All subjects (fed and fasted) will fast (not to consume any food) until 4 hours post dose. Water will be allowed during the fasting period. Subjects will be domiciled at the study center from Day −1 until the morning of Day 5 of each period. Subjects will be discharged from the study center on the morning of Day 5 upon satisfactory safety review and completion of study-related procedures. Safety and tolerability data will be monitored and collected following each dosing period. Periods 1 and 2 will be separated by a washout period of at least 7 days (no more than 10 days) from prior dose to the next dose. In certain instances, a longer washout may be acceptable if previously agreed to.
Serial blood samples (10 mL) will be collected at predose (0 hour) and at 0.5, 1, 2, 3, 6, 12, 24, 48, 72 and 96 hours post dose for the determination of plasma concentrations of Compound A and the O-desmethyl metabolite of Compound A. Safety will be monitored throughout the study; safety evaluations will include AE reporting, physical examinations, vital sign measurements, ECG, and clinical laboratory safety tests. Concomitant medications will be assessed and recorded throughout the study as well. In addition, during the subjects' stay-in-the clinic (i.e., confinement period), fasting plasma glucose levels will be monitored as part of the clinical laboratory safety tests. For Parts 1 and 2, all subjects will return to the clinic within 7 to days after the last dose for follow up safety assessments. In the event that a subject discontinues prematurely from the study, every reasonable effort should be made (and documented) to ensure that all procedures and evaluations scheduled for the follow-up visit are performed at the time of discontinuation or a follow-up visit should be scheduled within 7 to days from the discontinuation day.
Part 2 dosing: In Part 2, subjects will fast overnight for at least 8 hours prior to Compound A administration. On the morning of Day 1, each subject will receive a 20-mg tablet of Compound A orally. Subjects randomized to receive Compound A under fed conditions will be a served a standard high fat meal (breakfast).
The standard high fat meal or its equivalent must be consumed within minutes of serving. Dosing must occur 30 minutes (+5 minutes) after serving the meal. The tablet will be administered with approximately 240 mL of non-carbonated, room temperature water. After dosing, subjects will continue to fast until 4 hours after dosing.

Series [3] in a line: Gravimetric vapour sorption (DVS) hygroscopicity. It is filed as physicochemical. As to conditions: for water uptake (mass gain): between 0 and 80% relative humidity, DVS, 25° C. The method, then: Sorption isotherms were obtained using a SMS DVS Intrinsic moisture sorption analyser, controlled by DVS Intrinsic Control software v1.0.0.30. The sample temperature was maintained at 25° C. by the instrument controls. The humidity was controlled by mixing streams of dry and wet nitrogen, with a total flow rate of 200 mL/min. The relative humidity was measured by a calibrated Rotronic probe (dynamic range of 1.0-100% RH), located near the sample. The weight change, (mass relaxation) of the sample as a function of % RH was constantly monitored by the microbalance (accuracy±0.005 mg). Typically 5-20 mg of sample was placed in a tared mesh stainless steel basket under ambient conditions. The sample was loaded and unloaded at 40% RH and 25° C. (typical room conditions). The standard isotherm was performed at 25° C. at 10% RH intervals over a 0-90% RH range. Data analysis was undertaken in Microsoft Excel using DVS Analysis Suite v6.0.0.7.
Hygroscopicity of Form A was determined by moisture adsorption and desorption.

The mark [4] stands for this setting: fed vs fasted, healthy adult males, 20 mg Compound A.

As usually defined, the CL/F is clearance divided by bioavailability, as obtained after extravascular dosing. Usually half-life stands for the time needed for the level to fall by half in the phase considered. A low value points to fast loss.

Structures are written as SMILES. A value given as a limit tells only on which side of the number the result lay.

In the case of `CO[C@H]1CC[C@H](N2C(=O)CNc3ncc(-c4ccc(C(C)(C)O)nc4)nc32)CC1` [Compound A, 7-(6-(2-hydroxypropan-2-yl)pyridin-3-yl)-1-((trans)-4-methoxycyclohexyl)-3,4-dihydropyrazino[2,3-b]pyrazin-2(1H)-one], the CL/F in series [1] (Treatment A: one 20-mg Compound A API-in-capsule, oral, fasted, n = 18, geometric mean) is 20.3 L/h; in series [2] (Fasted (n = 11)) it was 19.9 L/h; in series [2] (Fed (n = 11, high fat meal)) it was 16.7 L/h. Also, the half-life in series [1] (male, human, plasma, Treatment A: one 20-mg Compound A API-in-capsule, oral, fasted, n = 18, geometric mean) was 5.7 h; in series [2] (Fasted (n = 11)) it was 5.3 h; in series [2] (Fed (n = 11, high fat meal)), 5.2 h. Further, the Vd/F in series [1] (male, human, plasma, Treatment A: one 20-mg Compound A API-in-capsule, oral, fasted, n = 18, geometric mean, read-out: Vz/F) came to 167 L; in series [2] (Fasted (n = 11)) it was 151 L; in series [2] (Fed (n = 11, high fat meal)), 125 L. Also, the Tmax in series [1] (male, human, Treatment A: one 20-mg Compound A API-in-capsule, oral, fasted, healthy adult males, n = 18, plasma, median) worked out at 1.5 h; in series [2] (Fasted (n = 11), healthy adult males) it was 1 h; in series [2] (Fed (n = 11, high fat meal)) it was 3 h. Besides, the Cmax in series [1] (male, human, Treatment A: one 20-mg Compound A API-in-capsule, oral, fasted, n = 18, plasma, geometric mean) was 0.19 µg/mL; in series [2] (Fasted (n = 11)) it was 0.182 µg/mL; in series [2] (Fed (n = 11, high fat meal)) it was 0.156 µg/mL. Besides, the AUC(0-t) in series [1] (male, human, Treatment A: one 20-mg Compound A API-in-capsule, oral, fasted, n = 18, plasma, geometric mean, read-out: AUC0-24) came to 0.934 µg·h/mL; in series [2] (Fasted (n = 11)), 0.955 µg·h/mL; in series [2] (Fed (n = 11, high fat meal)), 1.13 µg·h/mL. Also, the AUC(0-inf) was 0.985 µg·h/mL in series [1] (male, human, Treatment A: one 20-mg Compound A API-in-capsule, oral, fasted, n = 18, plasma, geometric mean, read-out: AUC0-∞); 1.01 µg·h/mL in series [2] (Fasted (n = 11)); 1.2 µg·h/mL in series [2] (Fed (n = 11, high fat meal)). Further, in series [1] (single dose 20 mg, healthy adult male subjects), the “pharmacokinetics, tablet formulations vs API in capsule” value is “comparable”. In addition, the “decrease in Cmax with a high fat meal” value in series [2] (setting [4]) is reported as around 17%. Also, the “increase in overall exposure (AUCinf) with a high fat meal” value in series [2] (setting [4]) is listed as around 20%.

Regarding `CO[C@H]1CC[C@H](N2C(=O)CNc3ncc(-c4ccc(C(C)(C)O)nc4)nc32)CC1` [Form A, 7-(6-(2-hydroxypropan-2-yl)pyridin-3-yl)-1-((trans)-4-methoxycyclohexyl)-3,4-dihydropyrazino[2,3-b]pyrazin-2(1H)-one], in series [3] (DVS moisture adsorption and desorption), the hygroscopicity entry is “not hygroscopic”. Moreover, the “XRPD diffractogram after full adsorption/desorption cycle” value in series [3] (after DVS cycle) is recorded as “unchanged from the initial Form A”. The “water uptake (mass gain)” value in series [3] is given as below 0.1 % w/w; in series [3] (listed as Form A of Compound A), “less than 0.1 % w/w”. Besides, the weight gain result in series [3] (increase in humidity from about 0% to about 50% relative humidity at about 25° C.) is reported as “about 0.1 % w/w”; in series [3] (increase in humidity from about 0% to about 95% relative humidity at about 25° C.), “about 0.3 % w/w”. Besides, the mass gain result in series [3] (increase in humidity from about 80% to about 90% relative humidity) is given as “about 0.5 % w/w”.
